Results published in patent US10786445B2 (BIOGEN CHESAPEAKE LLC, priority 2010, dated 2020).
Where “and” joins values, the source holds several entries; their conditions need not be identical. Equal values may be shown once. Read-outs that look alike come from different tables or passages of the source. Marks after values point to notes of the source that are not given here.

Key:
[1] = Study 101 Phase 1: serum ALT and AST; assay type: in vivo, human; conditions: subject receiving 6 mg/day, treated with 4,309 calories over 24 hours, two thirds carbohydrates
[2] = Study 101 Phase 1: plasma glyburide pharmacokinetics, bolus plus 72 h continuous infusion of RP-1127; assay type: in vivo, human
Protocol: All plasma concentration data were analyzed by nonlinear regression, simultaneously incorporating drug behavior during and after the infusion.

[3] = cited from earlier work
blood glucose = test: Study 101 Phase 1: blood glucose / hypoglycemia; conditions: for Effect on median blood glucose levels: FIG. 5; for Time at which dosing was stopped early due to the hypoglycemic effect: planned 72 h infusion
Protocol: Blood glucose was measured throughout the study, both to obtain pharmacodynamic information as well as for safety reasons. The dosing regimen was a bolus over 2 minutes followed by a continuous infusion for 72 hours.

[4] = In-use stability testing of glyburide solutions (PVC contact, in-line filter, flushing protocols); assay type: physicochemical
Text: One possible explanation is that glyburide adsorbs to PVC.

[5] = Pharmacokinetics of glyburide after intravenous administration (published studies); assay type: in vivo, human
Text: All patents and publications discussed herein are hereby incorporated by reference in their entireties.

[6] = Preclinical experiments: filtering concentrated reconstituted glyburide, dilution into PVC-free bag; assay type: physicochemical
Protocol: In these experiments, the filtered material was diluted into a PVC-free bag (for example, the B Braun EXCEL L8000).
Patients in need of glyburide treatment include patients suffering from stroke, such as acute stroke (ischemic and hemorrhagic), traumatic brain injury (TBI), spinal cord injury (SCI), myocardial infarction (MI), shock (including hemorrhagic shock), organ ischemia, ventricular arrhythmias, ischemic injury; hypoxia/ischemia; and other injuries, conditions, and disorders.

[7] = 0.4 mg/day, limit of detection 0.5 ng/mL
[8] = Study 101, 0.4 and 3.0 mg/day (N = 26), nonlinear regression
[9] = Jonsson et al. 2000, healthy males and females, data from Caucasian patients, N 10, i.v. dose 2.0 mg
[10] = McEwen et al. 1982, healthy males, N 20, i.v. dose 1.48 mg
[11] = Morrison et al. 1982, healthy males and females, N 8, i.v. dose 2.4 mg
[12] = Neugebauer et al. 1985, NIDDM males and females, N 20, i.v. dose 1.25 mg
[13] = Rogers et al. 1982, healthy males and females, N 8, i.v. dose 1 mg
[14] = Sorgel et al. 1997, healthy males, N 24, i.v. dose 1.5 mg
[15] = both sexes, human, in vivo, iv, Morrison et al. 1982, healthy males and females, N 8, i.v. dose 2.4 mg
[16] = both sexes, human, in vivo, iv, Neugebauer et al. 1985, NIDDM males and females, N 20, i.v. dose 1.25 mg
[17] = both sexes, human, in vivo, iv, Rydberg et al. 1995, healthy males and females, N 8, i.v. dose 1.0 mg, normalized to 70 kg
[18] = male, human, in vivo, iv, McEwen et al. 1982, healthy males, N 20, i.v. dose 1.48 mg

## COc1ccc(Cl)cc1C(=O)NCCc1ccc(S(=O)(=O)NC(=O)NC2CCCCC2)cc1 [Glyburide, 5-chloro-N-(4-[N-(cyclohexylcarbamoyl)sulfamoyl]phenethyl)-2-methoxybenzamide]
[1]
  ALT and AST: transient elevations in ALT and AST
[2]; 17.3 μg bolus plus 0.4 mg/day, 72 h infusion
  mean steady state glyburide concentration (Css): 3.8 ng/mL
[2]; 130 μg bolus plus 3 mg/day, 72 h infusion
  mean Css: 25.3 ng/mL
[2]; 0.4 mg/day
  Mean glyburide plasma level at treatment cessation: 4.4 ng/mL
  Reduction of mean glyburide plasma levels within one hour of treatment cessation: 54%
[2]; [7]
  Hour by which plasma levels were below the limits of detection in 50% of the patients: ≤ 76 h
  Hour by which plasma levels were below the limits of detection in 100% of patients: ≤ 96 h
[2]; 3 mg/day
  Hour by which plasma levels were below the limits of detection in 50% of the subjects: ≤ 84 h
  Hour by which plasma levels were below the limits of detection in 100% of patients: ≤ 96 h
  Mean glyburide plasma level at cessation of dosing: 27.3 ng/mL
  Reduction of mean glyburide plasma levels within 1 hour of cessation of dosing: 57%
[2]; Study 101
  Dependence of pharmacokinetic parameters on covariates: independent of dose, weight, height, body surface area, gender and age
[2]; Study 101, 0.4 and 3.0 mg/day (N = 26)
  clearance: 54 mL/min/m^2
[2]; [8]
  T1/2α: 0.44 h
  T1/2β: 3.31 h
[2]; Study 101, bolus plus continuous infusion
  Time to steady state following bolus administration: 8 to 20 h
[2]; Study 101, drop following the initial bolus loading dose
  Time of minimum plasma glyburide concentration after commencement of dosing (median): 1.25 to 1.5 h
[2]; both sexes, human, plasma, intravenous, 17.3 μg bolus plus 0.4 mg/day, 72 h infusion
  Cmax: 7.2 ng/mL
[2]; both sexes, human, plasma, intravenous, 0.4 mg/day
  concentration at 1 h after treatment cessation: 2 ng/mL
[2]; both sexes, human, plasma, intravenous, 3 mg/day
  concentration at 1 h after cessation of dosing: 11.9 ng/mL
[2]; both sexes, human, plasma, intravenous, Study 101, 0.4 and 3.0 mg/day (N = 26), read-out: Clearance
  clearance: 95 mL/min and 1.44 mL/min/kg
[2]; human, plasma, intravenous, 130 μg bolus plus 3 mg/day, 72 h infusion, one patient, read-out: Cmax (of all individual subjects)
  Cmax: 50.7 ng/mL
[2]; human, plasma, intravenous, 433 μg bolus plus 10 mg/day, single subject, at hour 2 (BG below 70 mg/dL)
  concentration at 2 h: 57.9 ng/mL
[2]; human, plasma, intravenous, 6 mg/day, single subject, at H12 (BG 68 mg/dL)
  concentration at 12 h: 64 ng/mL
[3]; Groop et al. 1987, bolus dose followed by continuous i.v. infusion
  mean glyburide Cmax after administration of the bolus: 240 ng/mL
[3]; [9]
  Cmax: 196 ng/mL
  clearance: 101.3 mL/min
  t1/2: 1.15 h
[3]; [10]
  Beta: 0.3 h⁻¹
  clearance: 49 mL/min
  t1/2: 2.46 h
[3]; [11]
  Beta: 0.62 h⁻¹
  Cmax: 648 ng/mL
  Vd: 7.4 L
  clearance: 73.7 mL/min
[3]; [12]
  Beta: 0.38 h⁻¹
  Cmax: 376 ng/mL
  clearance: 73.5 mL/min
  t1/2: 1.82 h
[3]; [13]
  Beta: 0.517 h⁻¹
  t1/2: 1.47 h
[3]; Rydberg et al. 1995, healthy males and females, N 8, i.v. dose 1.0 mg
  t1/2: 1.47 ± 0.42 h
[3]; [14]
  Cmax: 331 ± 65 ng/mL
  Tmax: 5.4 min
  Vd: 11.22 ± 3 L
  clearance: 74.7 ± 22 mL/min
  t1/2: 4.22 ± 1 h
[3]; Spraul et al. 1989, healthy males and females, N 52, i.v. dose 4.0 mg
  t1/2: 1.50 ± 0.36 h
[3]; range over studies: Rogers et al. 1982, Groop et al. 1987, Bank et al. 2000, Jonsson et al. 2000
  Maximum glyburide plasma concentrations: 200 to 436 ng/mL
Blood glucose; 0.4 mg/day vs placebo
  Effect on median blood glucose levels: very minor but visible effect on BG
Blood glucose; 433 μg bolus plus 10 mg/day, single subject
  Symptoms of hypoglycemia: classic symptoms of hypoglycemia but was always alert, oriented and conversant
Blood glucose; 433 μg bolus plus 10 mg/day, single subject, H12-H22
  blood glucose levels: 52 to 53 mg/dL
Blood glucose; 433 μg bolus plus 10 mg/day, single subject, hour 2
  BG: below 70 mg/dL
Blood glucose; 433 μg bolus plus 10 mg/day, single subject, hour 22
  morning serum glucose: below 50 mg/dL
Blood glucose; 3.0 mg/day vs placebo
  Effect on median blood glucose levels: more pronounced effect, without hypoglycemia
Blood glucose; 6 mg/day delivered as continuous infusion
  Hypoglycemia: severe hypoglycemia occurred
Blood glucose; 6 mg/day
  Time at which dosing was stopped early due to the hypoglycemic effect: around 32 hours
Blood glucose; 6 mg/day, single subject, H0 to H8
  blood glucose levels: above 70 mg/dL
Blood glucose; 6 mg/day, single subject, after IV dextrose (10%) 100 cc/hour from approximately H29
  blood glucose: 64 to 123 mg/dL
Blood glucose; 6 mg/day, single subject, approximately H13.3, lasted 15 minutes
  Signs of hypoglycemia: signs of hypoglycemia in the form of sweating (diaphoresis) and hunger
Blood glucose; 6 mg/day, single subject, at H12
  BG: 68 mg/dL
Blood glucose; 10 mg/day delivered as continuous infusion
  Hypoglycemia: severe hypoglycemia occurred
Blood glucose; 10 mg/day
  Time at which dosing was stopped early due to the hypoglycemic effect: around 24 hours
[4]; 10 μg/mL glyburide, PVC bag but not PVC tubing
  loss of glyburide in standard PVC bag: acceptable amount of loss of glyburide
[4]; 0.2 micron in-line filter
  glyburide concentration after passage through a filter: reduced
[4]; all components and flushing protocols
  reduction in glyburide passing through the full chain of components: less than 10%
[4]; glyburide concentrations below 10 μg/mL
  glyburide concentration on storage in PVC bags: reduced
[4]; solution passed through PVC tubing or stored in a PVC bag
  glyburide concentration on contact with polyvinyl chloride (PVC): reduced
[5]; Rydberg et al. 1995, healthy males and females, N 8, i.v. dose 1.0 mg, normalized to 70 kg
  Beta: 0.52*‡ 1/h
[5]; [15]
  clearance: 73.7 mL/min
  half-life: 1.18 h
[5]; [16]
  Vd: 11.6 L
  clearance: 73.5 mL/min
[5]; [17]
  Vd: 10.9 L
  clearance: 91 mL/min
[5]; both sexes, human, plasma, iv, Jonsson et al. 2000, healthy males and females, data from Caucasian patients, N 10, i.v. dose 2.0 mg
  clearance: 28 mL/min
[5]; [18]
  Vd: 9.7 L
  clearance: 48.7 mL/min
[6]; 0.2 micron filter, at least about 10 μg/mL, preferably about 0.5-1 mg/mL or greater
  Effect of filtering on glyburide concentration: does not significantly decrease the glyburide concentration
[6]; filter 1 mg/mL concentrate, dilute into PVC-free bag, unfiltered polyethylene lined tubing
  Loss of glyburide from glyburide solutions: effective to reduce the loss of glyburide
